Data on 8 molecules can be found in patent US20240245694A1, “Tricyclic Compounds and their Uses” (Novartis AG, priority 2022, published 2024).

Each structure is given as a SMILES string.

Experiment [1] deals with WRN helicase (core helicase motif aa N517-P1238) (Homo sapiens (Human), UniProt Q14191). In words: WRN ATPase assay (ADP-Glo), DNA dependent ATP hydrolysis. It is filed as biochemical. As to conditions: 3 hours pre-incubation, 300 micromolar ATP, FLAP26 ssDNA; geometric means of at least 2 determinations. The text has this:
An ATPase assay was set up to measure the DNA dependent ATP hydrolysis activity of WRN helicase. This assay was used also to assess the inhibition properties of compounds of the invention on DNA dependent WRN ATPase activity.
The core helicase motif of the WRN protein (aa N517-P1238) was produced for this assay (protein production as described above). A 45 oligonucleotide sequence called “FLAP26” as described by Brosh et al., 2009, DOI: 10.1074/jbc.M111446200 ([…]; SEQ ID NO: 2) was purchased from IDT (Integrated DNA Technologies, Leuven, Belgium) and used as single strand DNA substrate. The ADP-Glo assay kit (Promega, Madison, WI) allowing the quantification of ADP produced in ATP hydrolysis reactions was used for setting up this assay. Time course experiments were first performed in order to determine the best enzymatic assay conditions (including buffer conditions, reaction time and concentrations of protein, ATP and DNA substrates). A typical reaction consists of 10 nM WRN protein, 0.2 nM FLAP26, and 300 micromolar ATP in the following assay buffer: 30 mM Tris pH7.5, 2 mM MgCl2, 0.02% BSA, 50 mM NaCl, 0.1% pluronic F127 prepared in DNAse free water.
To evaluate the inhibition properties of compounds of the invention, serial dilutions were prepared in DMSO (10 half log dilutions from a 10 mM DMSO solution). 50 nanoliters of each concentration was pre-incubated for 3 hours in a 384 small volume assay plate (Greiner #784075) with 2.5 microliters of a 20 nM WRN helicase protein in assay buffer with 600 micromolar ATP. Control wells were included with a “high control” (no inhibition), containing DMSO with no test compound, and “low controls” (maximal inhibition), containing buffer without protein. The reaction was started by addition of 2.5 microliters of FLAP26 at 0.4 nM and incubated for 30 minutes at room temperature. The reaction was stopped with the addition of 5 microliters of the first ADP-Glo reagent and incubated for one hour to remove the excess amount of ATP. Afterwards, 10 microliters of ATP detection reagent was added and incubated for an additional hour before reading. Luminescence output was recorded using Tecan 1000 reader, with 5 minutes delay before reading. Each concentration of compound was tested in duplicates in the assay plate.
Data analysis was carried out using an in-house developed software (Novartis Helios software application, Novartis Institutes for BioMedical Research, unpublished) using the methods described by Formenko et al., 2006, DOI: 10.1016/j.cmpb.2006.01.008. Following normalization of activity values for the wells to % inhibition (% inhibition=[(high control-sample)/(high control-low control)]×100), IC50 fitting was carried out from the duplicate determinations present on each plate according to [4]. Data analysis can also be carried out using commercially available software designed to derive IC50 values using 4-parameter fits (e.g. GraphPad Prism, XL fit). The reported IC50 values are the geometrical means of at least 2 independent replicates.
In general terms: ADP-Glo turns the ADP formed in a reaction into a luminescent signal.

A further experiment has as its system DLD1-WRN-KO cells. The experiment in a line: Proliferation assay DLD1-WRN-KO (CellTiterGlo, 96 hours), off-target effects. It is filed as cell-based. As to conditions: Homo sapiens. The text has this: (§1) The colon carcinoma cell lines SW48 (RRID: CVCL_1724), HCT 116 (RRID: CVCL_0291) and SNU-407 (RRID: CVCL_5058) were obtained from ATCC. The WRN-knockdown insensitive colon carcinoma cell line DLD-1 (RRID: CVCL_0248) was obtained from the Korean Cell Line Bank (KCLB), and used to generate a derivative in which the endogenous WRN gene copies were knocked out by CRISPR-mediated editing using standard CRISPR methods. The resulting cell line, DLD1-WRN-KO, was used to assess potential off-target compound effects.
(§2) SW48, SNU-407 and DLD1-WRN-KO cells were cultured in growth medium composed of RPMI-1640 (Amimed Cat #1-41F22-1), 2 mM L-Glutamine (Amimed Cat #5-10K50), 10 mM HEPES (Gibco Cat #15630-056), 1 mM sodium pyruvate (Amimed Cat #5-60F00-H), 1× Penicillin-Streptomycin (Amimed Cat #4-01F00-H) and 10% fetal calf serum (Amimed Cat #2-01F30-G, Lot #LB11566P). HCT 116 cells were cultured in growth medium composed of McCoys 5A (Amimed catalog #1-18F01-1), 2 mM L-Glutamine (Amimed Cat #5-10K50), 1× Penicillin-Streptomycin (Amimed Cat #4-01F00-H) and 10% fetal calf serum (Amimed Cat #2-01F30-G, Lot #LB11566P). All cells were maintained at 37° C. in a humidified 5% CO2 incubator.
(§3) Following filtration through a Steriflip-NY 20 μm filter (Millipore Cat #SCNY00020), trypsinized cells were seeded in 100 microliters growth medium at 2′000 (SW48) or 1′500 (SNU-407, DLD1-WRN-KO, HCT 116) cells/well into white, clear-bottom 96-well plates (Costar Cat #3903). Three replicate plates were prepared for each compound treatment condition. In addition, one plate (termed “day 0”) was prepared to quantify the number of viable cells at the time of compound addition. Following overnight incubation at 37° C. in a humidified 5% CO2 atmosphere, eight 3-fold serial dilutions of a given compound stock (obtained at a concentration of 10 mM in DMSO and stored at 4° C.) were dispensed directly into each of the triplicate assay plates using a HP 300D non-contact Digital Dispenser (TECAN). The final concentration of DMSO was normalized to 0.1% in all wells. 96 hours after compound addition, cellular ATP levels as a surrogate for cell viability was assessed following addition of 50 microliters CellTiterGlo (Promega Cat #G7573) reagent and luminescence quantification on a MPLEX multi-mode plate-reader (TECAN) following a 10 minute incubation at room temperature. The number of viable cells in the “day 0” plate were quantified identically on the day of compound addition.
(§4) For data analysis, the assay background signal that was determined in wells containing medium, but no cells, was subtracted from all other data points prior to further calculations. The extent of growth inhibition and potential cell kill was assessed by comparing the ATP levels (measured using CellTiterGlo, Promega) in compound-treated cells with those present at the time of compound addition. To this end, the following conditional concept was programmatically applied in HELIOS, an in-house software applying a multi-step decision tree to arrive at optimal concentration response curve fits (Gubler et al, SLAS DOI: 10.1177/2472555217752140) to calculate % growth (% G) for each compound-treated well: % G=(T−V0)/V0))*100 when T<V0, and % G=(T−V0)/(V−V0)))*100 when T>V0, where V0 is the viability level at time of compound addition, while V and T represent vehicle-control and compound-treated viability levels, respectively, at the end of the compound incubation. 100%, 0% and −100% signify absence of growth inhibition, growth stasis, and complete cell kill, respectively. Compound concentrations leading to half-maximal growth inhibition (G150) and residual cell viability at the highest tested compound concentration (Data (cmax), expressed in percent) were routinely calculated. Data analysis can also be carried out using commercially available software designed to derive IC50 values using 4-parameter fits (e.g. GraphPad Prism, XL fit). […]
A general note: ATP-based viability assays read luminescence as a measure of living cells.

The test system of another experiment is SW48 cells. In words: Proliferation assay SW48 (CellTiterGlo, 96 hours). It is filed as cell-based. As to conditions: Homo sapiens.
From the text: as §1, §2, §3, §4

Sequence of WRN helicase (core helicase motif aa N517-P1238) (Q14191 517-1238): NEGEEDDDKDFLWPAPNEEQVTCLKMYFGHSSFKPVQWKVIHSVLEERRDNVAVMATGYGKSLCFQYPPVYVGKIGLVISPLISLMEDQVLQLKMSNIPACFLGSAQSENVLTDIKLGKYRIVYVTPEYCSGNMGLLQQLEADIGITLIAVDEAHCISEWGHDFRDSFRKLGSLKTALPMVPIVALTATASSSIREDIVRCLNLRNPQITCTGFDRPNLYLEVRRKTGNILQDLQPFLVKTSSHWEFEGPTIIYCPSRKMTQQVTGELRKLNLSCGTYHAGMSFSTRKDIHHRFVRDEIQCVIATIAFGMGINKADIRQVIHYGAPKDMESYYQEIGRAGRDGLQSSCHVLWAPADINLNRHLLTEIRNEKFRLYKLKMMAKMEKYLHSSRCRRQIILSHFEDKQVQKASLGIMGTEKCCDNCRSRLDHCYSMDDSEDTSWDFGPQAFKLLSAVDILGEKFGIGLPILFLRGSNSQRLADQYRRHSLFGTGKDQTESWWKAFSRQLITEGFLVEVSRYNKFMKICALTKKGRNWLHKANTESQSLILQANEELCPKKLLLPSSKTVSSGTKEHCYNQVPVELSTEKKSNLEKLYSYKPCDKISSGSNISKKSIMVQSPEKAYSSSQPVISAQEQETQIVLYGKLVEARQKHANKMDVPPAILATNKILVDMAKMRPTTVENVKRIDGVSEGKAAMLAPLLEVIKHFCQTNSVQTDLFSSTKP

Consider `Cc1nccc(C(=O)N2CCN(c3c4n(c5nc(C6=CCOCC6)nn5c3=O)[C@@H](C(=O)Nc3ccc(C(F)(F)F)cc3Cl)C[C@H]4C)CC2)c1O` [Example 10, (7R,9R)—N-(2-chloro-4-(trifluoromethyl)phenyl)-2-(3,6-dihydro-2H-pyran-4-yl)-6-(4-(3-hydroxy-2-methylisonicotinoyl)piperazin-1-yl)-7-methyl-5-oxo-5,7,8,9-tetrahydropyrrolo[1,2-c][1,2,4]triazolo[1,5-a]pyrimidine-9-carboxamide], for which it took 0.09 µM to reach half-maximal inhibition in experiment [1] (IC50). Besides, the GI50 (as a rule, the concentration at which growth is held to half of that of the control) is above 10 µM with DLD1-WRN-KO cells and 0.2 µM in the experiment on SW48 cells.

Turning to `Cc1ncnc(C(=O)N2CCN(c3c4n(c5nc(N6CCOCC6)nn5c3=O)[C@H](C(=O)Nc3ccc(C(F)(F)F)cc3Cl)C[C@H]4C)CC2)c1O` [Example 2D, (7R,9S)—N-(2-chloro-4-(trifluoromethyl)phenyl)-6-(4-(5-hydroxy-6-methylpyrimidine-4-carbonyl)piperazin-1-yl)-7-methyl-2-morpholino-5-oxo-5,7,8,9-tetrahydropyrrolo[1,2-c][1,2,4]triazolo[1,5-a]pyrimidine-9-carboxamide], in experiment [1], half-maximal inhibition (IC50) required 24 µM. Also, the GI50 in the experiment with DLD1-WRN-KO cells and with SW48 cells was above 10 µM throughout.

For `C[C@H]1C[C@@H](C(=O)Nc2ccc(C(F)(F)F)cc2Cl)n2c1c(N1CCN(C(=O)c3ncc4c(c3O)OCC4)CC1)c(=O)n1nc(C3=CCOCC3)nc21` [Example 5B, (7S,9S)—N-(2-chloro-4-(trifluoromethyl)phenyl)-2-(3,6-dihydro-2H-pyran-4-yl)-6-(4-(7-hydroxy-2,3-dihydrofuro[3,2-c]pyridine-6-carbonyl)piperazin-1-yl)-7-methyl-5-oxo-5,7,8,9-tetrahydropyrrolo[1,2-c][1,2,4]triazolo[1,5-a]pyrimidine-9-carboxamide], the IC50 (as a rule, the midpoint of a concentration-inhibition curve) in experiment [1] was determined as 6 µM. The GI50 in the experiment with DLD1-WRN-KO cells is above 10 µM; in the experiment on SW48 cells it was 5 µM.

With `Cc1cc(C(F)(F)F)ccc1NC(=O)[C@@H]1C[C@H](C)c2c(N3CCN(C(=O)c4ncccc4O)CC3)c(=O)n3nc(C4=CCOCC4)nc3n21` [Example 15B, (7S,9S)-2-(3,6-dihydro-2H-pyran-4-yl)-6-(4-(3-hydroxypicolinoyl)piperazin-1-yl)-7-methyl-N-(2-methyl-4-(trifluoromethyl)phenyl)-5-oxo-5,7,8,9-tetrahydropyrrolo[1,2-c][1,2,4]triazolo[1,5-a]pyrimidine-9-carboxamide], half-maximal inhibition in experiment [1] (IC50) was put at 18 µM. Moreover, the 50% growth inhibitory concentration (GI50) was above 10 µM in the experiment with DLD1-WRN-KO cells and 8 µM in the experiment with SW48 cells.

As to `Cc1cc(F)c(O)c(C(=O)N2CCN(c3c4n(c5nc(N6CCOCC6)nn5c3=O)[C@@H](C(=O)Nc3ccc(C(F)(F)F)cc3Cl)C[C@H]4C)CC2)n1` [Example 3A, (7R,9R)—N-(2-chloro-4-(trifluoromethyl)phenyl)-6-(4-(4-fluoro-3-hydroxy-6-methylpicolinoyl)piperazin-1-yl)-7-methyl-2-morpholino-5-oxo-5,7,8,9-tetrahydropyrrolo[1,2-c][1,2,4]triazolo[1,5-a]pyrimidine-9-carboxamide], the IC50 in experiment [1] was found to be 0.03 µM. Also, the GI50 in the experiment with DLD1-WRN-KO cells was above 10 µM; in the experiment with SW48 cells, 0.04 µM.

On to `Cc1ncnc(C(=O)N2CCN(c3c4n(c5nc(C6=CC(=O)OCC6)nn5c3=O)[C@@H](C(=O)Nc3ccc(C(F)(F)F)cc3Cl)C[C@H]4C)[C@H]3CC[C@@H]32)c1O` [Example 25, (7R,9R)—N-(2-chloro-4-(trifluoromethyl)phenyl)-6-((1S,6S)-5-(5-hydroxy-6-methylpyrimidine-4-carbonyl)-2,5-diazabicyclo[4.2.0]octan-2-yl)-7-methyl-5-oxo-2-(6-oxo-3,6-dihydro-2H-pyran-4-yl)-5,7,8,9-tetrahydropyrrolo[1,2-c][1,2,4]triazolo[1,5-a]pyrimidine-9-carboxamide], for which the GI50 in the experiment on DLD1-WRN-KO cells is above 10 µM; with SW48 cells, 0.01 µM.

`CC(=O)N1CCN(c2c3n(c4nc(-c5ccccc5)nn4c2=O)[C@H](C(=O)Nc2ccc(C(F)(F)F)cc2)CC3)CC1` [Example 22B, (S)-6-(4-acetylpiperazin-1-yl)-5-oxo-2-phenyl-N-(4-(trifluoromethyl)phenyl)-5,7,8,9-tetrahydropyrrolo[1,2-c][1,2,4]triazolo[1,5-a]pyrimidine-9-carboxamide] yielded an IC50 in experiment [1] above 100 µM.

Molecule `Cc1cc(C(F)(F)F)ccc1NC(=O)[C@@H]1CCc2c(N3CCN(C(=O)c4nccc(Cl)c4O)CC3)c(=O)n3nc(C4=CCOCC4)nc3n21` [Example 19B, (S)-6-(4-(4-chloro-3-hydroxypicolinoyl)piperazin-1-yl)-2-(3,6-dihydro-2H-pyran-4-yl)-N-(2-methyl-4-(trifluoromethyl)phenyl)-5-oxo-5,7,8,9-tetrahydropyrrolo[1,2-c][1,2,4]triazolo[1,5-a]pyrimidine-9-carboxamide] displayed an IC50 in experiment [1] of 44 µM. This lies in the double-digit micromolar range.
